Test results as given in US4478833A, “Trisubstituted pyrimido[5,4-d]pyrimidines and salts thereof” (Dr. Karl Thomae Gesellschaft mit beschrankter Haftung, priority 1980, dated 1984).
Like-named read-outs stand apart in the source and are kept apart here.

Key:
[1] = system: thrombocyte aggregation (platelet-rich plasma of healthy test persons); assay: Collagen-induced thrombocyte (platelet) aggregation in platelet-rich plasma, method of Born and Cross; format: cell-based, human; settings: sodium citrate, 10 minutes incubation at 37° C., read-out: EC50 (50% change in optical density, inhibition of collagen-induced aggregation)
Protocol: Thrombocyte aggregation was measured according to the method of Born and Cross [J. Physiol. 170, 397 (1964)]in platelet-rich plasma of healthy test persons. To inhibit coagulation, the blood was mixed with sodium citrate in a volume ration of 1:10.
After addition of the aggregation-inducing substance, the rate of decrease in optical density of the platelet suspension is measured photometrically and recorded. The rate of aggregation was determined from the angle of inclination of the density curve. The point on the curve at which there was the greatest translucence served for calculating the optical density.
The quantity of collagen was chosen as small as possible, but sufficient so that an irreversible reaction was obtained. Commercial collagen of Hormonchemie, Munich, was used. Before the collagen was added, the plasma was incubated for 10 minutes with the test substance at 37° C.
An EC50 corresponding to a 50% change in the optical density with respect to aggregation inhibition was calculated graphically from the measurement values obtained.

[2] = Acute toxicity in mice after oral administration; format: in vivo; settings: mouse, in vivo, po, dose of 250 mg/kg, observation time 14 days
Protocol: (§1) The acute toxicity of the test compounds was determined on groups of 6 to 10 mice after oral administration of a dose of 250 mg/kg (observation time: 14 days). For this purpose, the substances were suspended in 2% methyl cellulose, some water was subsequently added and the test substance was administered to the conscious animals by esophageal tube.

[3] = system: mice; assay: Acute toxicity in mice after oral administration; format: in vivo; settings: 250 mg/kg p.o., observation time 14 days
Protocol: as §1

SMILES	EC50 ([1]; Homo sapiens, 10 min) [nM]	LD50 at 336 h [2] [mg/kg]	animals died (out of animals tested) [3]	EC50 [1] [nM]
[O-][S+]1CCN(c2nc(NCCO)nc3c(SC4CCCCC4)ncnc23)CC1 [B, 8-Cyclohexylthio-2-(2-hydroxyethyl-amino)-4-(1-oxido-thiomorpholino)-pyrimido[5,4-d]pyrimidine]	48	> 250	0 out of 10	
[O-][S+]1CCN(c2nc(N(CCO)CCO)nc3c(SCc4ccccc4)ncnc23)CC1 [D, 8-Benzylthio-2-diethanolamino-4-(1-oxido-thiomorpholino)pyrimido[5,4-d]pyrimidine]	62	> 250	0 out of 10	
[O-][S+]1CCN(c2nc(N(CCO)CCO)nc3c(N4CCCCC4)ncnc23)CC1 [L, 2-Diethanolamino-4-(1-oxido-thiomorpholino)-8-piperidino-pyrimido[5,4-d]pyrimidine]	690	> 250	0 out of 10	
COCCN(CCO)c1nc(N2CC[S+]([O-])CC2)c2ncnc(SCc3ccccc3)c2n1 [Compound E, 8-Benzylthio-2-[N-(2-hydroxy-ethyl)-N-(2-methoxyethyl)-amino]-4-(1-oxido-thiomorpholino)-pyrimido[5,4-d]pyrimidine]	52	> 250	0 out of 10	
CC(C)CCOc1ncnc2c(N3CC[S+]([O-])CC3)nc(N(CCO)CCO)nc12 [M, 2-Diethanolamino-8-isopentoxy-4-(1-oxido-thiomorpholino)-pyrimido[5,4-d]pyrimidine]	460	> 250	0 out of 6	
CC(Nc1ncnc2c(N3CC[S+]([O-])CC3)nc(NCCO)nc12)c1ccccc1 [I, 2-(2-Hydroxyethyl-amino)-4-(1-oxido-thiomorpholino)-8-(L-1-phenylethyl-amino)-pyrimido[5,4-d]pyrimidine]				28
[O-][S+]1CCN(c2nc(N(CCO)CCO)nc3c(OCc4ccccc4)ncnc23)CC1 [N, 8-Benzyloxy-2-diethanolamino-4-(1-oxido-thiomorpholino)-pyrimido[5,4-d]pyrimidine]	230	> 250	0 out of 10	
CSc1ccc(C(C)Sc2ncnc3c(N4CC[S+]([O-])CC4)nc(NCCO)nc23)cc1 (stereo not drawn) [F, 2-(2-Hydroxyethyl-amino)-8-(α-methyl-4-methylthiobenzylthio)-4-(1-oxido-thiomorpholino)-pyrimido[5,4-d]pyrimidine]	29	> 250	0 out of 6	
[O-][S+]1CCN(c2nc(NCCO)nc3c(SCc4ccco4)ncnc23)CC1 [G, 8-Furfurylthio-2-(2-hydroxyethyl-amino)-4-(1-oxidothiomorpholino)-pyrimido[5,4-d]pyrimidine]	52	> 250	0 out of 6	
[O-][S+]1CCN(c2nc(NCCO)nc3c(SCc4ccccc4)ncnc23)CC1 [C, 8-Benzylthio-2-(2-hydroxyethyl-amino)-4-(1-oxido-thiomorpholino)-pyrimido[5,4-d]pyrimidine]	21	> 250	0 out of 10	
[O-][S+]1CCN(c2nc(NCCO)nc3c(NCc4ccc(Cl)cc4)ncnc23)CC1 [K, 8-(4-Chlorobenzyl-amino)-2-(2-hydroxyethyl-amino)-4-(1-oxido-thiomorpholino)-pyrimido[5,4-d]pyrimidine]	280	> 250	0 out of 10	
COCCN(CCO)c1nc(N2CC[S+]([O-])CC2)c2ncnc(OCc3ccccc3)c2n1 [O, 8-Benzyloxy-2-[N-(2-hydroxy-ethyl)-N-(2-methoxy-ethyl)amino]-4-(1-oxido-thiomorpholino)-pyrimido[5,4-d]pyrimidine]	300	> 250	0 out of 6	
CCCCN(CC)c1ncnc2c(N3CC[S+]([O-])CC3)nc(NCCO)nc12 [H, 8-(N-Ethyl-butylamino)-2-(2-hydroxyethyl-amino)-4-(1-oxidothiomorpholino)-pyrimido[5,4-d]pyrimidine]	300	> 250	0 out of 6	
CCCSc1ncnc2c(N3CC[S+]([O-])CC3)nc(NCCO)nc12 [A, 2-(2-Hydroxyethyl-amino)-4-(1-oxido-thiomorpholino)-8-propylthio-pyrimido[5,4-d]pyrimidine]	310	> 250	0 out of 6	
[O-][S+]1CCN(c2nc(N(CCO)CCO)nc3c(OCCCc4ccccc4)ncnc23)CC1 [P, 2-Diethanolamino-4-(1-oxido-thiomorpholino)-8-(3-phenylpropoxy)-pyrimido[5,4-d]pyrimidine]	360	> 250	0 out of 6	
